Experimental data as given in US10989719B2, “Methods for treating spinocerebellar ataxia type I using RPA1” (National University Corporation Tokyo Medical and Dental …, priority 2013, dated 2021).
Entries after “also recorded” stand apart in the source; their conditions may differ.

Tested on: OK6>SCA1 flies
Assay: Chemical therapy on hSCA1 Drosophila: lifespan on medium supplemented with CHK1 inhibitor
Type: in vivo
Conditions: adult flies
Description: FIG. 29 is a graph showing the results of a lifespan analysis of OK6>SCA1 flies fed on media supplemented with a CHK1 inhibitor (CHIR-124). The statistical analysis of the average values of the lifespan was performed by log-rank test.
A CHK1-specific inhibitor, CHIR-124 (manufactured by AXON MEDCHEM), was dissolved at 5 mg/mL in 1N hydrogen chloride and diluted to multiple concentrations with 0.05 N solution. Note that the medium used here was a 1:1 mixture of Instant Drosophila medium D7670 (manufactured by Sigma Aldrich) and Formula 4-24 Instant Drosophila medium (manufactured by Calolina). As a control, a medium to which an equal amount of 0.05 N hydrogen chloride solution was added was also prepared.
In this respect, whether or not the inhibition of a signal mediated by CHK1 mitigates the lifespan shortening in the SCA1 fly model was examined. Specifically, a CHK1-specific inhibitor (CHIR-124) was used. This inhibitor was added to feed (corn-meal medium) at multiple concentrations, and adult flies were fed on the feed. As a result, the lifespan of OK6>SCA1 was improved at 0.00016 mg/mL and 0.02 mg/mL (see FIG. 29). In addition, the improvement effect was more remarkable in an example where the inhibitor was given at a higher concentration. The lifespan of the flies treated with CHIR-124 at 0.02 mg/mL was elongated by 35% (see FIG. 29).

## O=c1[nH]c2ccc(Cl)cc2c(N[C@@H]2CN3CCC2CC3)c1-c1nc2ccccc2[nH]1 [CHIR-124, 4-[((3S)-1-azabicyclo[2.2.2]oct-3-yl)amino]-3-(1H-benzimidazol-2-yl)-6-chloroquinolin-2(1H)-one]
0.00016 mg/mL in feed
  lifespan of OK6>SCA1: improved
0.02 mg/mL in feed
  lifespan elongation: 35%
  lifespan of OK6>SCA1: ameliorated the lifespan-shortening; also recorded: improved
